Ends that are not written are not given here.
Legend:
[1] = system: VEGFR-2; parameters: method as in 2 sources, ref 30 = [30]; PMID 33209022; doi:10.2147/IJN.S270208; 30. Lu L. Chen H. Wang L. Zhao L. Cheng Y. Wang A. Wang F. Zhang X. A Dual Receptor Targeting- and BBB Penetrating- Peptide Functionalized Polyethyleneimine Nanocomplex for Secretory Endostatin Gene D ||| ref 19-22 = [19]; PMID 10747021; doi:10.1093/emboj/19.7.1525; 19. Binétruy-Tournaire R. Demangel C. Malavaud B. Vassy R. Rouyre S. Kraemer M. Plouët J. Derbin C. Perret G. Mazié J.C. Identification of a peptide blocking vascular endothelial growth factor (VEGF)- || [20]; PMID 16959272; doi:10.1016/j.lfs.2006.08.005; 20. Starzec A. Vassy R. Martin A. Lecouvey M. Di Benedetto M. Crépin M. Perret G.Y. Antiangiogenic and antitumor activities of peptide inhibiting the vascular endothelial growth factor binding to neur || [21]; PMID 17983687; doi:10.1016/j.peptides.2007.09.013; 21. Starzec A. Ladam P. Vassy R. Badache S. Bouchemal N. Navaza A. du Penhoat C.H. Perret G.Y. Structure-function analysis of the antiangiogenic ATWLPPR peptide inhibiting VEGF (165) binding to neurop || [22]; PMID 27693752; doi:10.1016/j.jconrel.2016.09.035; 22. Ying M. Shen Q. Zhan C. Wei X. Gao J. Xie C. Yao B. Lu W. A stabilized peptide ligand for multifunctional glioma targeted drug delivery J. Control. Release 2016 243 86 98 10.1016/j.jconrel.2016.09; settings: cited from earlier work
Description: (§1) ATWLPPR (AT7), which was identified by a mutated phage lib ... || Intracranial delivery of therapeutic agents is primarily hindered by the BBB [24]. The intercellular tight junction caused by the BBB restricts the passive diffusion of almost all large-molecule and more than 98% of small-molecule drugs from peripheral blood circulation to the brain tissue.

[2] = system: NRP-1; parameters: method as in 2 sources, ref 30 = [30]; PMID 33209022; doi:10.2147/IJN.S270208; 30. Lu L. Chen H. Wang L. Zhao L. Cheng Y. Wang A. Wang F. Zhang X. A Dual Receptor Targeting- and BBB Penetrating- Peptide Functionalized Polyethyleneimine Nanocomplex for Secretory Endostatin Gene D ||| ref 19-22 = [19]; PMID 10747021; doi:10.1093/emboj/19.7.1525; 19. Binétruy-Tournaire R. Demangel C. Malavaud B. Vassy R. Rouyre S. Kraemer M. Plouët J. Derbin C. Perret G. Mazié J.C. Identification of a peptide blocking vascular endothelial growth factor (VEGF)- || [20]; PMID 16959272; doi:10.1016/j.lfs.2006.08.005; 20. Starzec A. Vassy R. Martin A. Lecouvey M. Di Benedetto M. Crépin M. Perret G.Y. Antiangiogenic and antitumor activities of peptide inhibiting the vascular endothelial growth factor binding to neur || [21]; PMID 17983687; doi:10.1016/j.peptides.2007.09.013; 21. Starzec A. Ladam P. Vassy R. Badache S. Bouchemal N. Navaza A. du Penhoat C.H. Perret G.Y. Structure-function analysis of the antiangiogenic ATWLPPR peptide inhibiting VEGF (165) binding to neurop || [22]; PMID 27693752; doi:10.1016/j.jconrel.2016.09.035; 22. Ying M. Shen Q. Zhan C. Wei X. Gao J. Xie C. Yao B. Lu W. A stabilized peptide ligand for multifunctional glioma targeted drug delivery J. Control. Release 2016 243 86 98 10.1016/j.jconrel.2016.09; settings: cited from earlier work
Description: as §1

[3] = system: NRP-1; settings: for inhibition of binding of VEGF-A165 and NRP-1: peptide 1000 nmol/L
Description: The whole operation was conducted on a Biacore S200 instrument. The recombinant VEGFR-2 or NRP-1 proteins were firstly immobilized on a CM5 chip by an amine-coupling reaction. VEGF-A165 ligands with gradient concentrations in the absence or presence of different peptides were then flowed over the CM5 chip. The binding of VEGF-A165 ligands to the immobilized recombinant VEGFR-2 or NRP-1 proteins led to an increase of the refractive index on the surface of the chip, which could be converted into the fluctuation of electrical signals in the response (RU).
The CM5 sensor chip was obtained from GE Healthcare Life Sciences (Uppsala, Sweden). Purified recombinant human VEGFR-2 and NRP-1 receptor proteins were purchased from R&D Systems (Minneapolis, MN, USA).
The SPR assay was performed using the Biacore S200 instrument (GE Healthcare, Uppsala, Sweden). Firstly, the CM5 sensor chip was activated with EDC/NHS. Then, the recombinant VEGFR-2 and NRP-1 proteins were immobilized on the surface of the sensor chip according to the operating instructions of amine coupling. VEGF-A165 was diluted to 8, 4, 2, 1, and 0.5 nmol/L in different concentrations of peptide solution dissolved by HBS-EP buffer (0, 0.016, 0.064, 0.256, and 1 μmol/L, respectively). The Kinetics/Affinity program was selected, and the automatic continuous injection program was set. The injection flow rate was 30 μL/min, the injection time was 120 s, and the dissociation time was 220 s. At the same time, zero-concentration injection wells and 0.5 nmol/L repeat-concentration injection wells of VEGF-A165 were set. At the end of each injection, the channels were flushed with glycine-HCl solution for 30 s until response values were returned to baseline.

[4] = system: zebrafish embryo intersegmental vessel; test: Zebrafish embryo intersegmental vessel angiogenesis; assay type: in vivo; settings: 25 µmol/L; 24 h; 28 °C; fluorescence microscope; vs control; n = 3
Description: After a certain period, healthy, sexually mature female and male zebrafish were mated in a 1:1 ratio. After 24 h, the fertilized eggs were removed, disinfected, and washed, and then placed in embryo culture water and cultured in an incubator at 28 °C for 24 h. The fertilized eggs were washed with chain enzyme protease E solution (1 mg/mL) to remove the egg membrane on the surface and placed under a microscope to observe and select the normally developing zebrafish embryos, and then placed into a 24-well plate. […] The control group was added with the same volume of embryo culture water, and then placed in an incubator at 28 °C for 24 h. Zebrafish embryos were randomly removed from each group and observed under a fluorescence microscope. The total length of zebrafish internode vessels was calculated and counted.

[5] = VEGF-A165 0.5-8 nmol/L, CM5 chip, HBS-EP

Compound | affinity to VEGFR-2 ([1]; compared with TAT or AT7 alone) | affinity to NRP-1 ([2]; compared with TAT or AT7 alone) | inhibition of VEGF-A165 binding to NRP-1 relative to VEGFR-2 ([3]; SPR, NRP-1 compared with VEGFR-2) | inhibitory effect on VEGF-A165/NRP-1 binding, comparison between peptides [3, 5] | binding curve of VEGF-A165 and NRP-1 ([3]; peptide 256 nmol/L, VEGF-A165 0.5-8 nmol/L, CM5 chip, HBS-EP) | inhibition of binding of VEGF-A165 and NRP-1 [3, 5] | intersegmental vascular growth [4] | binding to VEGFR-2 [1] | binding to NRP-1 [2]
CC(C)C[C@H](NC(=O)[C@H](Cc1c[nH]c2ccccc12)NC(=O)[C@@H](NC(=O)[C@H](C)NC(=O)[C@H](CS)NC(=O)[C@H](CCCNC(=N)N)NC(=O)[C@H](CCCNC(=N)N)NC(=O)[C@H](CCCNC(=N)N)NC(=O)[C@H](CCC(N)=O)NC(=O)[C@H](CCCNC(=N)N)NC(=O)[C@H](CCCNC(=N)N)NC(=O)[C@H](CCCCN)NC(=O)[C@H](CCCCN)NC(=O)[C@@H](N)CCCNC(=N)N)[C@@H](C)O)C(=O)N1CCC[C@H]1C(=O)N1CCC[C@H]1C(=O)N[C@@H](CCCNC(=N)N)C(=O)O [TAT-AT7] | higher affinity to VEGFR-2 and NRP-1 | higher affinity to VEGFR-2 and NRP-1 | stronger inhibitory effect on the binding of VEGF-A165 to NRP-1 | much higher than that of AT7 and TAT | tended to be a zero baseline | completely inhibited the binding of VEGF-A165 and NRP-1 | significantly inhibit the generation of the zebrafish embryo intersegmental vessel |  | 
ATWLPPR [AT7, ATWLPPR] |  |  |  |  |  | displayed inhibitory effects on the binding of VEGF-A165 and NRP-1, but it did not completely inhibit the binding | no obvious effect on intersegmental vascular growth | able to bind to VEGFR-2 and NRP-1 | able to bind to VEGFR-2 and NRP-1
